{"source": "patent US20050101595A1", "about": "“N-containing cycloalkyl-substituted amino-thiazole derivatives and pharmaceutical compositions for inhibiting cell proliferation and methods for their use” (PFIZER INC., priority 2003, published 2005)", "key": {"CDK2/Cyclin A": {"molecular_target": "CDK2/Cyclin A (Homo sapiens, UniProt P24941)", "assay": "Inhibition of CDK2/Cyclin A Retinoblastoma Kinase Activity", "type": "biochemical", "conditions": "for Ki: apparent Ki, CDK2/proteolyzed cyclin A, Rb fragment substrate, 25 μM ATP", "how_it_was_run": "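Baculovirus-expressed CDK2 complexed with proteolyzed cyclin A (10 or 19 nM), Rb fragment substrate, 25 μM [32P/33P]ATP, HEPES pH 7.4, 30 °C for 60 or 75 min under initial-rate conditions. Filter capture and phosphorimager readout; apparent Ki fitted to competitive or tight-binding competitive inhibition.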"}, "[1]": {"molecular_target": "human CDK4 and genetically truncated (1-264) cyclin D3 (Homo sapiens, UniProt P11802)", "sequence (P11802 whole entry, the tested form may be a part)": "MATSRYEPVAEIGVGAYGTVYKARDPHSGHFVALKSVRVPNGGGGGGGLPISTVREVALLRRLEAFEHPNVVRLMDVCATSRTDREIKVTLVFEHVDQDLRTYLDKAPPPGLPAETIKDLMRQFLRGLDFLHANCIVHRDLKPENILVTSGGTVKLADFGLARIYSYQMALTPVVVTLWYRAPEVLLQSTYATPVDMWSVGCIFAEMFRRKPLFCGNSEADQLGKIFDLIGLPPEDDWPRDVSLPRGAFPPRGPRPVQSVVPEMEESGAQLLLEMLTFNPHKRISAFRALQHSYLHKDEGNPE", "sequence (P30281 1-264 partner)": "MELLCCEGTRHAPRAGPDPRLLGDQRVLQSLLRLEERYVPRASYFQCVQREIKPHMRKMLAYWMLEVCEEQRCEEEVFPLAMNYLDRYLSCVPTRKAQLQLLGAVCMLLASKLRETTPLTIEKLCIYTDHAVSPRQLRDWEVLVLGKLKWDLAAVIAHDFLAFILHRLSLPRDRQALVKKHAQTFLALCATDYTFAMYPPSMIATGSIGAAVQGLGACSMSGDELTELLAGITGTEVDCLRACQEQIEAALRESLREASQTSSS", "assay": "Inhibition of CDK4/Cyclin D Retinoblastoma Kinase Activity", "type": "biochemical", "conditions": "for Ki: apparent Ki, CDK4/truncated cyclin D3, Rb fragment substrate, 25 μM ATP", "how_it_was_run": "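Human CDK4/truncated cyclin D3 (1-264) complex from baculovirus-infected insect cells, 5 nM, phosphorylating Rb fragment (residues 386-928, His-tagged) with 25 μM [32/33P]ATP in HEPES pH 7.4, MgCl2, 2% DMSO at 30° C. for 20 min (60 min for tight binders). Filter-captured radioactivity by phosphorimager; apparent Ki from competitive or tight-binding fits.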"}, "HCT-116 cell line": {"test_system": "HCT-116 cell line", "assay": "Inhibition of cell growth, tetrazolium salt (MTT) assay", "type": "cell-based", "conditions": "for HCT-116 % Inhibition at 0.25 μM: 0.25 μM compound; for IC50: Homo sapiens, HCT-116, 120 h, MTT, three to five days, read-out: HCT-116 IC50", "how_it_was_run": "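MTT colorimetric viability: three-to-five-day compound exposure in 0.5% (v/v) DMSO at 37° C, MTT 0.2 mg/mL for the last 4 h, A540 compared with vehicle-treated cells.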"}, "[2]": {"conditions": "0.1 μM compound, HCT-116, Table 4"}, "[3]": {"conditions": "0.1 μM compound, HCT-116, Table 3"}}, "note": "Counter-ions that a name gives are not always drawn. Like-named read-outs stand apart in the source and are kept apart here."}
{"compound": "Nc1nc(NC2CCN(C(=O)c3cc(Cl)cc(Cl)c3)CC2)sc1C(=O)c1c(F)cccc1F", "note": "[Example R134]", "values": [{"measurement": "CDK2 % Inhibition at 0.03 μM", "setting": "CDK2/Cyclin A; at 0.03 μM", "result": 29, "unit": "%"}, {"measurement": "CDK4 % Inhibition at 0.03 μM", "setting": "[1]; at 0.03 μM", "result": 51, "unit": "%"}, {"measurement": "HCT-116 % Inhibition at 0.1 μM", "setting": "HCT-116 cell line; HCT-116 cells, at 0.1 μM", "result": 45, "unit": "%"}, {"measurement": "HCT-116 5 Inhibition at 0.25 μM", "setting": "HCT-116 cell line; HCT-116 cells", "result": 95}]}
{"compound": "Nc1nc(NC2CCN(C(=O)Oc3ccc([N+](=O)[O-])cc3)CC2)sc1C(=O)c1c(F)cccc1F", "note": "[Example Q84]", "values": [{"measurement": "CDK2 % Inhibition at 0.03 μM", "setting": "CDK2/Cyclin A; 0.03 μM compound, Table 4", "result": 63, "unit": "%"}, {"measurement": "CDK4 % Inhibition at 0.03 μM", "setting": "[1]; 0.03 μM compound, Table 4", "result": 88, "unit": "%"}, {"measurement": "HCT-116 % Inhibition at 0.1 μM", "setting": "HCT-116 cell line; [2]", "result": 3, "unit": "%"}, {"measurement": "HCT-116 % Inhibition at 0.25 μM", "setting": "HCT-116 cell line; HCT-116, Table 4", "result": 40, "unit": "%"}]}
{"compound": "COC(=O)CCCCCCCCC(=O)N1CCC(Nc2nc(N)c(C(=O)c3c(F)cccc3F)s2)CC1", "note": "[Example R76]", "values": [{"measurement": "CDK2 % Inhibition at 0.03 μM", "setting": "CDK2/Cyclin A; at 0.03 μM", "result": 53, "unit": "%"}, {"measurement": "CDK4 % Inhibition at 0.03 μM", "setting": "[1]; at 0.03 μM", "result": 64, "unit": "%"}, {"measurement": "HCT-116 % Inhibition at 0.1 μM", "setting": "HCT-116 cell line; HCT-116 cells, at 0.1 μM", "result": 0, "unit": "%"}, {"measurement": "HCT-116 5 Inhibition at 0.25 μM", "setting": "HCT-116 cell line; HCT-116 cells", "result": 38}]}
{"compound": "Cc1cn(-c2ccc(S(=O)(=O)N3CCC(Nc4nc(N)c(C(=O)c5c(F)cccc5F)s4)CC3)cn2)cn1", "note": "[Example G27, 1-(4-Amino-2-{1-[6-(4-methyl-imidazol-1-yl)-pyridine-3-sulfonyl]-piperidin-4-ylamino}-thiazol-5-yl)-1-(2,6-difluoro-phenyl)-methanone Hydrochloride]", "values": [{"measurement": "Ki", "setting": "CDK2/Cyclin A", "result": 0.41, "unit": "nM"}, {"measurement": "Ki", "setting": "[1]", "result": "< 1", "unit": "nM"}, {"measurement": "IC50", "setting": "HCT-116 cell line; first HCT-116 column (c4)", "result": 57, "unit": "nM"}, {"measurement": "IC50", "setting": "HCT-116 cell line; second HCT-116 column (c5)", "result": 250, "unit": "nM"}]}
{"compound": "Nc1nc(NC2CCN(S(=O)(=O)c3c(F)cccc3F)CC2)sc1C(=O)c1c(F)cccc1F", "note": "[Example P67]", "values": [{"measurement": "CDK2 % Inhibition at 0.03 μM", "setting": "CDK2/Cyclin A; 0.03 μM compound, Table 3", "result": "−8", "unit": "%"}, {"measurement": "CDK4 % Inhibition at 0.03 μM", "setting": "[1]; 0.03 μM compound, Table 3", "result": 22, "unit": "%"}, {"measurement": "HCT-116 % Inhibition at 0.1 μM", "setting": "HCT-116 cell line; [3]", "result": 9, "unit": "%"}, {"measurement": "HCT-116 % Inhibition at 0.25 μM", "setting": "HCT-116 cell line; HCT-116, Table 3", "result": 25, "unit": "%"}]}
{"compound": "Nc1nc(NC2CCN(S(=O)(=O)CCN(CC3CC3)CC3CC3)CC2)sc1C(=O)c1c(F)cccc1F", "note": "[Example K54, (4-Amino-2-{1-[2-(bis-cyclopropylmethyl-amino)-ethanesulfonyl]-piperidin-4-ylamino}-thiazol-5-yl)-(2,6-difluoro-phenyl)-methanone]", "values": [{"measurement": "Ki", "setting": "CDK2/Cyclin A", "result": 5, "unit": "nM"}, {"measurement": "Ki", "setting": "[1]", "result": 1.3, "unit": "nM"}, {"measurement": "IC50", "setting": "HCT-116 cell line; first HCT-116 column (c4)", "result": 280, "unit": "nM"}, {"measurement": "IC50", "setting": "HCT-116 cell line; second HCT-116 column (c5)", "result": 800, "unit": "nM"}]}
{"compound": "Nc1nc(NC2CCN(S(=O)(=O)CCCN3CCCC3)CC2)sc1C(=O)c1c(F)cccc1F", "note": "[Example K8, 1-(4-Amino-2-{1-[3-(pyrrolidin-1-yl)propane-1 sulfonyl]-piperidin-4-ylamino}-thiazol-5-yl)-1-(2,6-difluoro-phenyl)-methanone.]", "values": [{"measurement": "Ki", "setting": "CDK2/Cyclin A", "result": 1.8, "unit": "nM"}, {"measurement": "Ki", "setting": "[1]", "result": 2.7, "unit": "nM"}, {"measurement": "IC50", "setting": "HCT-116 cell line; first HCT-116 column (c4)", "result": 310, "unit": "nM"}, {"measurement": "IC50", "setting": "HCT-116 cell line; second HCT-116 column (c5)", "result": 2900, "unit": "nM"}]}
{"compound": "CC(C)S(=O)(=O)N1CCC(Nc2nc(N)c(C(=O)c3c(F)cccc3F)s2)CC1", "note": "[Example F11, 1-{4-Amino-2-[1-(propane-2-sulfonyl)-piperidin-4-ylamino]-thiazol-5-yl}-1-(2,6-difluoro-phenyl)-methanone]", "values": [{"measurement": "Ki", "setting": "CDK2/Cyclin A", "result": 1.6, "unit": "nM"}, {"measurement": "Ki", "setting": "[1]", "result": 1.1, "unit": "nM"}, {"measurement": "IC50", "setting": "HCT-116 cell line; first HCT-116 column (c4)", "result": 180, "unit": "nM"}, {"measurement": "IC50", "setting": "HCT-116 cell line; second HCT-116 column (c5)", "result": 450, "unit": "nM"}]}
{"compound": "Nc1nc(NC2CCN(C(=O)OCc3ccccc3)CC2)sc1C(=O)c1c(F)cccc1F", "note": "[Example Q6]", "values": [{"measurement": "CDK2 % Inhibition at 0.03 μM", "setting": "CDK2/Cyclin A; 0.03 μM compound, Table 4", "result": "−32", "unit": "%"}, {"measurement": "CDK4 % Inhibition at 0.03 μM", "setting": "[1]; 0.03 μM compound, Table 4", "result": 24, "unit": "%"}, {"measurement": "HCT-116 % Inhibition at 0.1 μM", "setting": "HCT-116 cell line; [2]", "result": 9, "unit": "%"}, {"measurement": "HCT-116 % Inhibition at 0.25 μM", "setting": "HCT-116 cell line; HCT-116, Table 4", "result": 38, "unit": "%"}]}
{"compound": "C[C@@H]1CN(CCc2ccc(S(=O)(=O)N3CCC(Nc4nc(N)c(C(=O)c5c(F)cccc5F)s4)CC3)cn2)C[C@H](C)N1", "note": "[Example N8]", "values": [{"measurement": "Ki", "setting": "CDK2/Cyclin A", "result": 1.1, "unit": "nM"}, {"measurement": "Ki", "setting": "[1]", "result": 0.32, "unit": "nM"}, {"measurement": "IC50", "setting": "HCT-116 cell line; first HCT-116 column (c4)", "result": 1300, "unit": "nM"}, {"measurement": "IC50", "setting": "HCT-116 cell line; second HCT-116 column (c5)", "result": 5000, "unit": "nM"}]}
{"compound": "Nc1nc(NC2CCN(S(=O)(=O)c3cccc4cccnc34)CC2)sc1C(=O)c1c(F)cccc1F", "note": "[Example P6]", "values": [{"measurement": "CDK2 % Inhibition at 0.03 μM", "setting": "CDK2/Cyclin A; 0.03 μM compound, Table 3", "result": "−32", "unit": "%"}, {"measurement": "CDK4 % Inhibition at 0.03 μM", "setting": "[1]; 0.03 μM compound, Table 3", "result": 18, "unit": "%"}, {"measurement": "HCT-116 % Inhibition at 0.1 μM", "setting": "HCT-116 cell line; [3]", "result": 22, "unit": "%"}, {"measurement": "HCT-116 % Inhibition at 0.25 μM", "setting": "HCT-116 cell line; HCT-116, Table 3", "result": 23, "unit": "%"}]}
{"compound": "CC(C)c1ccc(S(=O)(=O)N2CCC(Nc3nc(N)c(C(=O)c4c(F)cccc4F)s3)CC2)cc1", "note": "[Example P31]", "values": [{"measurement": "CDK2 % Inhibition at 0.03 μM", "setting": "CDK2/Cyclin A; 0.03 μM compound, Table 3", "result": 40, "unit": "%"}, {"measurement": "CDK4 % Inhibition at 0.03 μM", "setting": "[1]; 0.03 μM compound, Table 3", "result": 50, "unit": "%"}, {"measurement": "HCT-116 % Inhibition at 0.1 μM", "setting": "HCT-116 cell line; [3]", "result": 3, "unit": "%"}, {"measurement": "HCT-116 % Inhibition at 0.25 μM", "setting": "HCT-116 cell line; HCT-116, Table 3", "result": 16, "unit": "%"}]}
{"compound": "CC(C)(C)c1ccc(C(=O)N2CCC(Nc3nc(N)c(C(=O)c4c(F)cccc4F)s3)CC2)cc1", "note": "[Example R153]", "values": [{"measurement": "CDK2 % Inhibition at 0.03 μM", "setting": "CDK2/Cyclin A; at 0.03 μM", "result": 37, "unit": "%"}, {"measurement": "CDK4 % Inhibition at 0.03 μM", "setting": "[1]; at 0.03 μM", "result": 58, "unit": "%"}, {"measurement": "HCT-116 % Inhibition at 0.1 μM", "setting": "HCT-116 cell line; HCT-116 cells, at 0.1 μM", "result": 0, "unit": "%"}, {"measurement": "HCT-116 5 Inhibition at 0.25 μM", "setting": "HCT-116 cell line; HCT-116 cells", "result": 44}]}
{"compound": "Nc1nc(NC2CCN(S(=O)(=O)CCCn3ccnc3)CC2)sc1C(=O)c1c(F)cccc1F", "note": "[Example K2]", "values": [{"measurement": "Ki", "setting": "CDK2/Cyclin A", "result": 6.3, "unit": "nM"}, {"measurement": "Ki", "setting": "[1]", "result": 4.7, "unit": "nM"}, {"measurement": "IC50", "setting": "HCT-116 cell line; first HCT-116 column (c4)", "result": 2300, "unit": "nM"}, {"measurement": "IC50", "setting": "HCT-116 cell line; second HCT-116 column (c5)", "result": "> 5000", "unit": "nM"}]}
